Data published in US5646164A, “α-methylene-γ-butyrolactones: new inhibitors of platelet aggregation” (National Science Council, priority 1995, dated 1997).
In brackets after ≈: the same amount, converted by molar mass.

Columns and labels:
Type in all cases: cell-based
[1] = test system: platelet aggregation induced by arachidonic acid (AA) in washed rabbit platelets; experiment: Inhibition of arachidonic acid-induced aggregation of washed rabbit platelets (turbidimetry, Lumi-aggregometer); conditions: Oryctolagus cuniculus; for activity at 100 µg/mL: 0.05 h, AA 100 μM, compound 100 μg/ml, preincubated at 37° for 3 min, mean ± SEM (n); for IC50: AA 100 μg/ml
Description: (§1) The pharmacological activity of these compounds were determined according to G.V.R. Born by turbidimetry (J. Physiol., 1963, 168, 178). Based on the method, samples were suspended in rabbit platelets which were washed with platelet-rich plasma, the aggregation was then counted by the Lumi-aggregometer (Model 1020, Paytoon, Canada). Formula (I-III) at the concentration of 100 μg/ml are found to inhibit the platelet aggregation perfectly which was induced by arachidonic acid (AA), collagen, ADP, and PAF. Since the structures of these compounds are different from those of known antiplatelet agents, the present invention have the potential for further development.
4. AA (arachidonic acid), purchased from Sigma, was dissolved in deionized water.
(§2) Platelet suspension was prepared from EDTA-anticoagulated Platelet-rich plasma according to washing procedures described previously (Teng, C. M. et. al., Thromb Haemost 59, 304, 1991). Platelets were counted by Hemalaser 2 (Sebia, France) and adjusted to a concentration of 4.5×10^8 platelets/mL. Platelet pellets were finally suspended in Tyrode's buffer (pH 7.4) of the following composition: NaCl (136.8 mM), KCl (2.8 mM), NaHCO3 (11.9 mM), MgCl2 (2.1 mM), NaH2 PO4 (0.33 mM), CaCl2 (1 mM), glucose (11.2 mM) containing 0.35% bovine serum albumin.
(§3) Aggregation was measured by the turbidimetry method as described by O'Brien (J Clin Pathol 15, 452, 1962). ATP released from platelets was detected by the bioluminescence method of DeLuca and McElory (Methods Enzymol 57, 3, 1978). Both aggregation and ATP release were measured simultaneously in a Lumi-aggregometer (model 1020B, Payton, Canada) connected to two dt/al-channel recorders. Platelet preparations were stirred at 900 rpm. When DMSO was used as solvent, its final concentration was fixed at 0.5% (v/v) to eliminate the effect of the solvent. For the calculation of percentage aggregation, the absorbance of platelet suspension was designated as 0% aggregation and the absorbance of platelet-free Tyrode's solution as 100% aggregation. The antiplatelet effects were shown in Table 1 and the inhibitory concentrations for 50% aggregation (IC50) were expressed in Table 2.

[2] = test system: platelet aggregation induced by thrombin (Thr) in washed rabbit platelets; experiment: Inhibition of thrombin-induced aggregation of washed rabbit platelets (turbidimetry, Lumi-aggregometer); conditions: Oryctolagus cuniculus, Thr 0.1 U/ml; for activity at 100 µg/mL: 0.05 h, compound 100 μg/ml, preincubated at 37° for 3 min, mean ± SEM (n)
Description: as §1
1. Bovine thrombin, from the Parke Davis Co., was dissolved in 50% (v/v) glycerol for a stock solution of 100 NIH units/mL.
as §2, §3

[3] = test system: platelet aggregation induced by collagen (Col) in washed rabbit platelets; experiment: Inhibition of collagen-induced aggregation of washed rabbit platelets (turbidimetry, Lumi-aggregometer); conditions: Oryctolagus cuniculus, Col 10 μg/ml; for activity at 100 µg/mL: 0.05 h, compound 100 μg/ml, preincubated at 37° for 3 min, mean ± SEM (n)
Description: as §1
2. Collagen (type I: bovine Achilles tendon), from the Sigma Chemical Co., was homogenized in 25 mM acetic acid and stored (1 mg/mL) at -70° C.
as §2, §3

[4] = test system: platelet aggregation induced by platelet-activating factor (PAF) in washed rabbit platelets; experiment: Inhibition of PAF-induced aggregation of washed rabbit platelets (turbidimetry, Lumi-aggregometer); conditions: Oryctolagus cuniculus, PAF 2 nM
Description: as §1
3. PAF (1-O-alkyl-2-acetyl-sn-glycerol-3-phosphorylcholine), purchased from Sigma, was dissolved in chloroform and diluted into 0.1% BSA-saline solution immediately prior to use.
as §2, §3

IC50 [1] [µg/mL]	IC50 [2] [µg/mL]	IC50 [3] [µg/mL]	IC50 [4] [µg/mL]	Structure (SMILES)	activity at 100 µg/mL [1] [%]	activity at 100 µg/mL [2] [%]	activity at 100 µg/mL [3] [%]
> 50	> 50	> 50	> 50	C=C1CC(C)(COc2cc(=O)oc3ccccc23)OC1=O (stereo not shown) [Compound 1, 4-[(2,3,4,5-Tetrahydro-2-methyl-4-methylene-5-oxo-2-furanyl)methoxy]-2H-1-benzopyran-2-one]	23.3 ± 12.6	74.4 ± 9.6	8.5 ± 6.9
2.86 (≈ 8.21 µM)			36 (≈ 103 µM)	C=C1CC(COc2cc(=O)oc3ccccc23)(c2ccccc2)OC1=O (stereo not shown) [Compound 2, 4-[(2,3,4,5-Tetrahydro-4-methylene-5-oxo-2-phenyl-2-furanyl)methoxy]-2H-1-benzopyran-2-one]	0	0	0
26.1 (≈ 91.1 µM)	> 50		> 50	C=C1CC(C)(COc2ccc3ccc(=O)oc3c2)OC1=O (stereo not shown) [Compound 3, 7-[(2,3,4,5-Tetrahydro-2-methyl-4-methylene-5-oxo-2-furanyl)methoxy]-2H-1-benzopyran-2-one]	0	22.8 ± 6.6	0
1.27 (≈ 3.65 µM)			5.7 (≈ 16.4 µM)	C=C1CC(COc2ccc3ccc(=O)oc3c2)(c2ccccc2)OC1=O (stereo not shown) [Compound 4, 7-[(2,3,4,5-Tetrahydro-4-methylene-5-oxo-2-Phenyl-2-furanyl)methoxy]-2H-1-benzopyran-2-one]	0	0	0
10.5 (≈ 36.9 µM)				C=C1CC(C)(COc2cccc3ccc(=O)[nH]c23)OC1=O (stereo not shown) [Compound 5, 8-[(2,3,4,5-Tetrahydro-2-methyl-4-methylene-5-oxo-2-furanyl)methoxy]-2(1H)-quinolinone]	0	25.9 ± 0.7	0
8.3 (≈ 23.9 µM)	> 50		> 50	C=C1CC(COc2cccc3ccc(=O)[nH]c23)(c2ccccc2)OC1=O (stereo not shown) [Compound 6, 8-[(2,3,4,5-Tetrahydro-4-methylene-5-oxo-2-phenyl-2-furanyl)methoxy]-2(1H)-quinolinone]	0	54.3 ± 1.3	0
	> 50	27.2 (≈ 101 µM)	47.9 (≈ 178 µM)	C=C1CC(C)(COc2cccc3cccnc23)OC1=O (stereo not shown) [Compound 7, 8-[(2,3,4,5-Tetrahydro-2-methyl-4-methylene-5-oxo-2-furanyl)methoxy]quinoline]	0	17.4 ± 7.9	0
	15.8 (≈ 47.6 µM)	4.76 (≈ 14.4 µM)	11.1 (≈ 33.6 µM)	C=C1CC(COc2cccc3cccnc23)(c2ccccc2)OC1=O (stereo not shown) [Compound 8, 8-[(2,3,4,5-Tetrahydro-4-methylene-5-oxo-2-phenyl-2-furanyl)methoxy]quinoline]	0	0	0
	13.7 (≈ 37.4 µM)	5.17 (≈ 14.1 µM)	12.4 (≈ 33.8 µM)	C=C1CC(COc2cccc3cccnc23)(c2ccc(Cl)cc2)OC1=O (stereo not shown) [Compound 9, 8-[(2-(p-Chlorophenyl)-2,3,4,5-tetrahydro-4-methylene-5-oxo-2-furanyl)methoxy]quinoline]	0	0	0
	> 50	16.2 (≈ 57.3 µM)	39.6 (≈ 140 µM)	C=C1CC(C)(COc2cccc3ccc(C)nc23)OC1=O (stereo not shown) [Compound 10, 8-[(2,3,4,5-Tetrahydro-2-methyl-4-methylene-5-oxo-2-furanyl)methoxy]-2-methylquinoline]	0	0	0
	14.9 (≈ 43.1 µM)	5.76 (≈ 16.7 µM)	10.5 (≈ 30.5 µM)	C=C1CC(COc2cccc3ccc(C)nc23)(c2ccccc2)OC1=O (stereo not shown) [Compound 11, 8-[(2,3,4,5-Tetrahydro-4-methylene-5-oxo-2-phenyl-2-furanyl)methoxy]-2-methylquinoline]	0	0	0
			10.8 (≈ 28.5 µM)	C=C1CC(COc2cccc3ccc(C)nc23)(c2ccc(Cl)cc2)OC1=O (stereo not shown) [Compound 12, 8-[(2-(p-Chlorophenyl)-2,3,4,5-tetrahydro-4-methylene-5-oxo-2-furanyl)methoxy]-2-methylquinoline]	0	0	0
